Holding throughout (assay type): cell-based
For data set [1], the system named is human embryonic stem cells (KhES-1). As to the kind of experiment: Cloning efficiency (colony formation) of dissociated human ES cells at low density on MEF feeder layer. The note with it: for cloning efficiency compared to without the inhibitors: Fasudil/HA1077 10 μM, H-1152 200 nM, other kinase inhibitors at ranges of b100. The text has this: The Human embryonic stem cells used for the experiments described herein were embryonic stem cells (KhES-1, KhES-2 and KhES-3) from human blastocysts established in the laboratory of Norio Nakatsuji, at the Institute for Frontier Medical Sciences, Kyoto University, which were distributed and used (mainly KhES-1) following the human embryonic stem cell guidelines of the Japanese government. In accordance with the method of the Nakatsuji laboratory (Suemori et al., Biochem Biophys Res Commun. 345, 926-32 (2006)), undifferentiated human embryonic stem cells were cultured on a plastic culture dish with mouse embryonic fibroblasts (inactivated with mitomycin, MEF) seeded as a feeder layer of cells. More specifically, the culture medium containing comprising KSR (Invitrogen/Gibco-BRL) at the final concentration of 20%, 1×NEAA (non-essential amino acids, Invitrogen/Gibco BRL), 2 mM L-giutaminic acid and 0.1 mM 2-mercaptoethanol in D-MEM F12 (Sigma D6421) was used, and the culturing was performed at 37° C., 5% CO2. Passaging was performed in every three or four days, and the embryonic stem cells were detached from the feeder layer using the dissociation liquid (containing 0.25% trypsin, 1 mg/mi collagenase IV solution, 1 mM CaCl2 in a phosphate buffered saline; all of which from Invitrogen/Gibco-BRL), followed by dissociated into small cell clumps (of about 50-100 cells) by pipetting, and then were seeded on the feeder layer which had been formed from seeding MEF on the day before.
The cell death inhibiting effect and the influence on cloning efficiency, of ROCK inhibitor, for the human embryonic stem cell culture after dissociation to single cells were examined as follows. […] The embryonic stem cell clumps ware dissociated to single cells by trypsin digestion (0.25% trypsin—EDTA, at 37° C. for 5 minutes), and seeded on a MEF feeder layer in 96 well culture plates at low density (500 cells/0.32 cm^2 in 0.15 ml of medium). The number of formed colonies was counted six days after culture in the maintenance culture medium. ROCK inhibitor Y-27632 was added at the concentration of 10 μM one hour prior to detaching the cells from the feeder layer, and the same amount was added to culture in the same amount after the detachment.
The effects of other ROCK inhibitors on the cloning efficiency of human embryonic stem cells in maintenance culture were evaluated using methods as described in example 1. The ROCK inhibitors, Fasudil/HA1077 (10 μM) and H-1152 (200 nM) were used. Also, inhibitors for other kinases were used for reference. The inhibitors for other kinases used were: cAMP-Rp (1-100 μM) and KT5720 (5-500 nM), which are protein kinase A inhibitors; bisindolylmaleimide (0.01-5 μM) and staurosporine (1-50 nM), which are protein kinase C inhibitors; PD98059 (0.5-50 μM), which is an MAPK inhibitor; LY294002 (1-50 μM), which is a PI3K inhibitor; and ML-7 (0.3-30 μM), which is an MLCK inhibitor.

Data set [2] deals with human ES cells. The data set is described as follows: Differentiation induction into neuronal and brain precursor cells by SFEB method from singly-dissociated human ES cells. The source says:
Human ES cells subjected to maintenance culture were detached from feeder cells as small cell clumps in the same manner as in Example 4, and after removal of residual feeder cells, they were dissociated into single cells by trypsin digestion. After centrifugation, cells were dissociated into culture medium for differentiation induction at 2×10^5 cells/mL, and were suspension-cultured using a non-cell adhesive culture plate to conduct serum-free culture (SFEB method) of suspended aggregates. In addition, Nodal inhibitor LeftyA (1 μg/ml, R&D), Wnt inhibitor Dkk1 (500 ng/ml, R&D) and BMP inhibitor BMPR1A-Fc (1.5 μg/ml, R&D) were added for the first 10 days after the start of culture for differentiation induction. After serum-free suspension culture for 16-35 days, the cell aggregates were fixed and immunostained by fluorescence antibody method. Treatment with the ROCK inhibitor, Y-27632, was initiated at 1 hour before cell separation in the same manner as in Example 1, and the inhibitor was added to maintenance culture medium for the first six days also after dissociation. For the differentiation into brain precursor cells, on day 25 of SFEB culture, floating cell aggregates were transferred into a poly-D-lysine/laminin/fibronectin-coated culture slide, and were cultured in an adhesion state for additional 10 days. In the adhesion culture, Neurobasal medium, supplemented with B27 (vitamin A-free) and 2 mM L-glutamine (both supplied by Gibco-BRL), was used as a culture medium.

The test system of data set [3] is human ES cells (KhES-1). As to the kind of experiment: Feeder-free culture of singly-dissociated human ES cells, colony formation. The note with it: 10 μM Y-27632, feeder-free, MEF-conditioned medium, 500 cells/well; less than 0.2% untreated. The procedure:
Specifically, according to the above literature, MEF cells cultured to confluency were lysed on a culture dish by deoxycholate method to leave only extracellular matrix. Singly-dissociated human ES cells (500 cells/well of a 96-well plate) were seeded onto them under Y-2763 treatment (10 μM or 0 μM) by the same method as for the routine culture on MEF cells (abovementioned Example). Conditioned medium, in which human ES cell maintenance medium and MEF were preliminarily cultured for one day, was used as a culture medium. The number of human ES cell colonies formed 5 days later were counted.

Data set [4] relates to human ES cells (KhES-1). The data set is described as follows: Number of surviving cells in suspension culture (SFEB) of dissociated human ES cells. The note with it: 8% in non-supplemented group. As to the method:
(§1) Human ES cells subjected to maintenance culture were detached as small cell clumps (aggregates) from feeder cells in the same manner as in Example 1, and after removal of residual feeder cells, they were dissociated into single cells by trypsin digestion. After centrifugation, 2×10^5 cells were dissociated in serum-free culture medium for post differentiation induction (Watanabe et al., Nature Neuroscience 8, 288-296, 2005; supplemented with G-MEM, KSR and 2-mercaptoethanol, KSR was added at a concentration of 20%). The singly-dissociated human ES cells (1.0×10^5 cells/ml) were suspension-cultured in a non-cell adhesive 35 mm culture plate to form aggregates, and were cultured in the same culture medium for 2-6 days (SFEB method; See the above reference of Watanabe et al.). After 2-day culture, the percentage of apoptic cells was measured by TUNEL method (MEBSTAIN Apoptosis kit Direct, MBL). Treatment with ROCK inhibitor, Y-27632, was initiated at 1 hour before cell separation in the same manner as in Example 1, and the inhibitor was added to maintenance culture medium also after dissociation. For comparison, caspase inhibitor (ZVAD; 10 μM) and BDNF/NT-3/NT-4 (mixture of 50 ng/ml each), whose apoptosis suppressive effect has been reported, were used to conduct the experiment. In addition, the number of surviving cells on day 6 was counted in each case.

In data set [5] the test system is human embryonic stem cells. The data set is described as follows: Cloning efficiency at clonal density (one cell per well, 96 well plates) on MEF. The note with it: 10 μM, under 1% without inhibitor. The procedure: The cell death inhibiting effect and the influence on cloning efficiency, of ROCK inhibitor, for the human embryonic stem cell culture after dissociation to single cells were examined as follows. […] The number of formed colonies was counted six days after culture in the maintenance culture medium. ROCK inhibitor Y-27632 was added at the concentration of 10 μM one hour prior to detaching the cells from the feeder layer, and the same amount was added to culture in the same amount after the detachment. Also, to evaluate whether promotion of cloning would be caused by the autocrine factor of human embryonic stem cell, a similar experiment was performed in 96 well culture plates at clonal density (one cell per well) of human embryonic stem cells, and the cloning efficiency was determined.

Data set [6] concerns human ES cells (KhES-1). The data set is described as follows: TUNEL apoptosis assay in suspension culture of dissociated human ES cells. The note with it: after 2-day suspension culture; 80% in non-supplemented control. As to the method:
as §1

Another data set deals with hES cells (KhES-3). The note with it: human, 3 months. As to the method: FIGS. 4A-4L—Analysis of hES cells cultured in the presence of Y-27632 at low density. (FIGS. 4A-4C) Immunostaining of E-cadherin (FIG. 4A), Oct3/4 (FIG. 4B) and SSEA-4 (FIG. 4C) in Y-27632-treated hES cells (KhES-1) after extended passaging (30 times) at low density with Y-27632 treatment. Lower panels show DAPI staining (blue). (FIGS. 4D-4G) Histological analysis (hematoxylin-eosin staining, […] paraffin section) of teratoma tissues formed after subcapsular injection of hES cells (KhES-1) following extended passaging with Y-27632 into SCID mouse testes. (FIG. 4D) Cartilage, (FIG. 4E) neuroepithelium, (FIG. 4F) pigmented epithelium, and (g) gut-like mucosa with columnar epithelium. (FIG. 4H, FIG. 4I) After extended passaging involving low-density culture with Y-27632 treatment, efficient colony formation from dissociated hES cells (32.5±11%; KhES-1) remained dependent on Y-27632 (FIG. 4I) and few colonies were seen without it (FIG. 4H). (FIG. 4J) Dose-response relationship of two selective ROCK inhibitors (Y-27632, Fasudil; the cloning efficiency was 1.3±0.8% and 25.1±1.6% without and with 10 μM Fasudil; P<0.001, n=3) and two unrelated kinase inhibitors (cAMP-Rp, LY294002) on colony formation (KhES-1). Y-axis, ratios of promoting activity of colony formation to that with 10 μM Y-27632. […]

For data set [7], the system named is human ES cells. As to the kind of experiment: Maintenance culture of singly-dissociated human ES cells on MEF with different time courses of treatment (survival, growth, apoptosis). The note with it: for population doubling time: days 2 to 6 after start of dissociation culture. The procedure:
As for the maintenance culture of singly-dissociated human ES cells, in order to examine whether Y-27632 promotes cell survival at the early phase of dissociation culture, Y-27632 treatment time was divided into the following three groups to compare cell survival-promoting effects in maintenance culture. Group 1: Y-27632 treatment (10 μM, same below) was conducted as 1 hour-pretreatment and only for the first 12 hours of culture after dissociation in the process of dissociation culture of human ES cells. Group 2: Y-27632 treatment was conducted as 1 hour-pretreatment and for the entire culture period after dissociation in the process of dissociation culture of human ES cells. Group 3: No Y-27632 treatment was conducted. In these groups, surviving cells on day 3 per seeded cells (5×10^4 cells per one well of a 6-well plate) were counted in maintenance culture system on MEF layer. In the same experiment as in the above Example 7, the effect of Y-27632 on the cell growth for 6 days after the start of dissociation culture was examined in Groups 1 and 2 by extending the culture period to 6 days.

The results in this text go back to patent US11898161B2, “Stem cell culture medium and method” (RIKEN, priority 2006, dated 2024).

Where “and” joins values, the source holds several entries; their conditions need not be identical. Equal entries are not always repeated. Residues, ends and D or L forms follow the SMILES beside them. *: point of attachment. Cbz = O=C(OCc1ccccc1)*; CH2F = FC*

For `O=S(=O)(c1cccc2cnccc12)N1CCCNCC1` [Fasudil], in data set [1] (10 μM Fasudil, KhES-1, 1.3±0.8% without, P<0.001, n=3), the cloning efficiency is 25.1±1.6%. The “cloning efficiency compared to without the inhibitors” value in data set [1] was “significant enhanced cloning efficiencies”.
Take `Cc1cncc2cccc(S(=O)(=O)N3CCCNC[C@@H]3C)c12` [H-1152]: in data set [1], the “cloning efficiency compared to without the inhibitors” value is on record as “significant enhanced cloning efficiencies”.
With `C[C@@H](N)[C@H]1CC[C@H](C(=O)Nc2ccncc2)CC1` [Y-27632], the “cloning efficiency (ratio of formed colonies to initially seeded human embryonic stem cells)” value in data set [1] (10 μM Y-27632, 500 cells/well on MEF, six days culture, 1% without inhibitor) is listed as 27%. For the same compound, in data set [1] (KhES-1 after extended passaging (low-density culture with Y-27632 treatment), few colonies without it), the “colony formation from dissociated hES cells after extended passaging” value is 32.5±11%. Besides, the “Oct3/4 positive cells (undifferentiated-state ES cell marker)” value in the data set with human ES cells [2] (day 24 of differentiation culture) was “less than 10%”. Also, the Pax6-positive cells result with human ES cells [2] (day 24 of differentiation culture, Y-27632 first six days, with LeftyA, Dkk1, BMPR1A-Fc) is on record as “about 80%”. Moreover, the “cell aggregates with many Bf1 positive cells (brain precursor marker)” value with human ES cells [2] (day 35 of differentiation culture) was “about 60%”. In the data set with human ES cells (KhES-1) [3], the “cloning efficiency per seeded human ES cell, feeder-free” value is 10.2% and 10.2±1.2%. In the data set on human ES cells (KhES-1) [4], the “surviving cells on day 6 (of plated cells)” value is on record as 70%. Also, in data set [5], the cloning efficiency is listed as 25%. For the same compound, the “TUNEL-positive (apoptotic) cells” value in the data set with human ES cells (KhES-1) [6] is 9%. This compound also returned a normal karyotype in the data set with hES cells (KhES-3) of 100%. Further, the “surviving cells on day 3 per seeded cells” value in the data set with human ES cells [7] (Group 1: 10 μM, 1 hour pretreatment and first 12 hours after dissociation only) turned out to be 270%; in the data set with human ES cells [7] (Group 2: 10 μM, 1 hour pretreatment and entire culture period) it was 290%. The “number of cells on day 6 relative to initially seeded cells” value with human ES cells [7] (Group 1: first 12 hours only) turned out to be 670%; with human ES cells [7] (Group 2: entire culture period), 860%. Further, the results for the population doubling time in the data set on human ES cells [7] (Group 1) and in the data set on human ES cells [7] (Group 2) were 49.0 h and 41.5 h, respectively. The “percentage of apoptosis (active Caspase 3-positive cells)” value with human ES cells [7] (both Groups 1 and 2, days 3 and 5) is “less than 1%”.
For `COC(=O)C[C@H](NC(=O)[C@H](C)NC(=O)[C@@H](NC(=O)OCc1ccccc1)C(C)C)C(=O)CF` [ZVAD] (Cbz-Val-Ala-Asp(OMe)-CH2F), the “TUNEL-positive (apoptotic) cells” value in the data set on human ES cells (KhES-1) [6] is on record as 72%.
